# Results: US20160215348A1, “GENE EXPRESSION BIOMARKERS AND THEIR USE FOR DIAGNOSTIC AND PROGNOSTIC APPLICATION IN PATIENTS POTENTIALLY IN NEED OF HDAC INHIBITOR TREATMENT” (4SC AG, priority 2013, published 2016)
# Columns and labels:
# DPP3 [1] = experiment: Gene expression in HT29 cancer cells (in vitro); type: cell-based, human; conditions: standardized to 0 h
# Method: (§1) Hatched columns relate to blood, black columns relate to HepG2 cells, white boxes relate to HT 29 cells. Values are standardized to the value at 0 h.
# (§2) Samples were obtained and gene expressions were determined with the methods as described herein below. The results are shown in below table 3 and FIGS. 2 and 3
# (§3) The above values represent a mean value which was determined on the basis of 2 biological replicates, for each of which 3 technical replicates were prepared. […] The level of gene expression determined in peripheral blood samples can be correlated with a certain level of activity of HDAC in the diseased cells, e.g. by applying an appropriate conversion factor or conversion table, which may be determined for each specific disease, and/or patient group.
# (§4) To determine RNA expression levels of ZFP64 in different cancer cell lines and PBMC, the cell membranes were chemically disrupted with a buffer containing guanidine isothiocycanate, which lyses the cells and supports the binding of RNA to a silica membrane and RNA was extracted via a filter-based spin column.
# (§5) The High-Capacity cDNA Reverse Transcription Kit (Applied Biosystems) was used for reverse transcription of total RNA into single stranded cDNA with the aid of random hexamer primers according to the manufacturer's instructions. Briefly, for the reaction mix total RNA was mixed with random primers in excess, 4 mM dNTP Mix, 2.5 U/reaction, reverse transcriptase and nuclease free water. The reverse transcription took place in a thermal cycler under the following conditions: 25° C. for 10 min, 37° C. for 120 min, 85° C. for 5 min, followed by 4° C. for cooling down the reaction. The reverse transcription can be done in principle as well with other reverse transcriptases, primers and temperature protocols. Whenever possible, 250 ng total RNA were reverse transcribed if not available, lower amounts were used.
# (§6) Custom TaqMan® Arrays (Applied Biosystems) in Format 16 were designed for the gene expression analysis of biomarkers of the present invention and housekeeping genes as outlined in table 4. These arrays allow for qPCR analysis of 8 samples per card. Of course, all reactions can be done as well by conventional qPCR analysis with specific primers.
# GAPDH [2] = experiment: Gene expression in HT29 cancer cells (in vitro); type: cell-based, human; conditions: standardized to 0 h
# Method: as §1, §2, §3, §4, §5, §6
# TBP [3] = experiment: Gene expression in HT29 cancer cells (in vitro); type: cell-based, human; conditions: standardized to 0 h
# Method: as §1, §2, §3, §4, §5, §6
# MICALL1 [4] = experiment: Gene expression in HT29 cancer cells (in vitro); type: cell-based, human; conditions: standardized to 0 h
# Method: as §1, §2, §3, §4, §5, §6
# HIST2H4A/B [5] = experiment: Gene expression in HT29 cancer cells (in vitro); type: cell-based, human; conditions: standardized to 0 h
# Method: as §1, §2, §3, §4, §5, §6
# ZFP64 [6] = experiment: Gene expression in HT29 cancer cells (in vitro); type: cell-based, human; conditions: standardized to 0 h
# Method: as §1, §2, §3, §4, §5, §6
# CCDC43 [7] = experiment: Gene expression in HT29 cancer cells (in vitro); type: cell-based, human; conditions: standardized to 0 h
# Method: as §1, §2, §3, §4, §5, §6
# KDELC2 [8] = experiment: Gene expression in HT29 cancer cells (in vitro); type: cell-based, human; conditions: standardized to 0 h
# Method: as §1, §2, §3, §4, §5, §6
# 18S [9] = experiment: Gene expression in HT29 cancer cells (in vitro); type: cell-based, human; conditions: standardized to 0 h
# Method: as §1, §2, §3, §4, §5, §6
# [10] = test system: hepatocellular cancer (HCC); experiment: SHELTER clinical trial, overall survival (Kaplan-Meier) by baseline ZFP64 expression; type: in vivo, human
# Method: Resminostat was explored as monotherapy and in combination with sorafenib. Patients with advanced HCC (BCLC staging B/C) were included in a multi-center, two-arm trial. […] A dose escalation of resminostat (range 200 to 600 mg) combined with Sorafenib (400 or 800 mg) was performed. Arm A investigated the drug combination (resminostat+sorafenib), Arm B the monotherapy of resminostat (600 mg). Primary objective was the progression-free survival rate (PFSR) after 12 weeks (w). Secondary objectives included safety, tolerability, tumor response, PFS, TTP, OS and the analyses of PK and biomarkers (BM), incl. HDAC enzyme inhibition, histone acetylation and gene expressions in peripheral blood. Based on the results and indications seen in the analysis in example 3a, the dCt values of ZFP64 at baseline were treated with the method described here for determining the split between gene expression groups. Data was processed as follows: Gene expression data of the genes of interest was gathered as real time PCR dCt values relative to the expression of housekeeping genes for a specific time point, e.g. at baseline prior to treatment start. […] Said two groups were then compared in Kaplan-Meier analyses for OS, PFS in order to identify a statistically significant difference that separates the patients' probability for OS, PFS.
# ZFP64 [11] = experiment: ZFP64 gene expression in diverse cancer cell lines (FIG. 4c); type: cell-based; conditions: 10 μM; 0, 2, 5 and 24 hours
# Text: as §4
# DPP3 [12] = experiment: Gene expression in peripheral blood of healthy donors treated ex vivo; type: cell-based, human; conditions: standardized to 0 h
# Method: as §1, §2, §3, §5, §6
# GAPDH [13] = experiment: as above; type: cell-based, human; conditions: standardized to 0 h
# Method: as §1, §2, §3, §5, §6
# TBP [14] = experiment: as above; type: cell-based, human; conditions: standardized to 0 h
# Method: as §1, §2, §3, §5, §6
# MICALL1 [15] = experiment: as above; type: cell-based, human; conditions: standardized to 0 h
# Method: as §1, §2, §3, §5, §6
# HIST2H4A/B [16] = experiment: as above; type: cell-based, human; conditions: standardized to 0 h
# Method: as §1, §2, §3, §5, §6
# ZFP64 [17] = experiment: as above; type: cell-based, human; conditions: standardized to 0 h
# Method: as §1, §2, §3, §5, §6
# CCDC43 [18] = experiment: as above; type: cell-based, human; conditions: standardized to 0 h
# Method: as §1, §2, §3, §5, §6
# KDELC2 [19] = experiment: as above; type: cell-based, human; conditions: standardized to 0 h
# Method: as §1, §2, §3, §5, §6
# 18S [20] = experiment: as above; type: cell-based, human; conditions: standardized to 0 h
# Method: as §1, §2, §3, §5, §6
# [21] = SHELTER patients on resminostat 600 mg or resminostat 600 mg + sorafenib 400 mg, pooled, split at 75th percentile
# [22] = SHELTER, single arm, resminostat 600 mg (combination: + sorafenib 400 mg), split at 75th percentile
# [23] = all available SHELTER patients (monotherapy and sorafenib combination arms pooled), split 60% high/40% low
smiles,measurement,setting,value
"CN(C)Cc1ccc(S(=O)(=O)n2ccc(/C=C/C(=O)NO)c2)cc1 [resminostat, (E)-3-(1-(4-((dimethylamino)methyl)phenylsulfonyl)-1H-pyrrol-3-yl)-N-hydroxyacrylamide]","Expression level, DPP3",DPP3 [1]; 2 h,0.87
same,"Expression level, DPP3",DPP3 [1]; 5 h,0.72
same,"Expression level, GAPDH (housekeeping gene)",GAPDH [2]; 2 h,0.93
same,"Expression level, GAPDH (housekeeping gene)",GAPDH [2]; 5 h,0.97
same,"Expression level, TBP (housekeeping gene)",TBP [3]; 2 h,1.15
same,"Expression level, TBP (housekeeping gene)",TBP [3]; 5 h,1.13
same,"Expression level, MICALL1",MICALL1 [4]; 2 h,0.81
same,"Expression level, MICALL1",MICALL1 [4]; 5 h,0.42
same,"Expression level, HIST2H4A/B",HIST2H4A/B [5]; 2 h,0.96
same,"Expression level, HIST2H4A/B",HIST2H4A/B [5]; 5 h,0.88
same,"Expression level, ZFP64",ZFP64 [6]; 2 h,0.58
same,"Expression level, ZFP64",ZFP64 [6]; 5 h,0.25
same,"Expression level, CCDC43",CCDC43 [7]; 2 h,0.82
same,"Expression level, CCDC43",CCDC43 [7]; 5 h,0.53
same,"Expression level, KDELC2",KDELC2 [8]; 2 h,0.79
same,"Expression level, KDELC2",KDELC2 [8]; 5 h,0.35
same,"Expression level, 18s (housekeeping gene)",18S [9]; 2 h,0.94
same,"Expression level, 18s (housekeeping gene)",18S [9]; 5 h,0.91
same,median OS (high ZFP64 expression),[10]; [21],9.4 months
same,median OS (low ZFP64 expression),[10]; [21],5.1 months
same,overall median OS for the two groups,"[10]; SHELTER, single arm, resminostat 600 mg (combination: + sorafenib 400 mg)",3.7 months
same,median OS for high ZFP64 expression,[10]; [22],7.0 months
same,median OS for low ZFP64 expression,[10]; [22],0.9 months
same,median OS (high ZFP64 expression),[10]; [23],8 months
same,median OS (low ZFP64 expression),[10]; [23],3.9 months
same,ZFP64 expression in several cancer cell lines (FIG. 4c),ZFP64 [11],down-regulating effect
same,"Expression level, DPP3",DPP3 [12]; 2 h,0.57
same,"Expression level, DPP3",DPP3 [12]; 5 h,0.29
same,"Expression level, GAPDH (housekeeping gene)",GAPDH [13]; 2 h,1.16
same,"Expression level, GAPDH (housekeeping gene)",GAPDH [13]; 5 h,1.38
same,"Expression level, TBP (housekeeping gene)",TBP [14]; 2 h,1.03
same,"Expression level, TBP (housekeeping gene)",TBP [14]; 5 h,1.11
same,"Expression level, MICALL1",MICALL1 [15]; 2 h,0.30
same,"Expression level, MICALL1",MICALL1 [15]; 5 h,0.10
same,"Expression level, HIST2H4A/B",HIST2H4A/B [16]; 2 h,2.59
same,"Expression level, HIST2H4A/B",HIST2H4A/B [16]; 5 h,4.11
same,"Expression level, ZFP64",ZFP64 [17]; 2 h,0.24
same,"Expression level, ZFP64",ZFP64 [17]; 5 h,0.15
same,"Expression level, CCDC43",CCDC43 [18]; 2 h,0.29
same,"Expression level, CCDC43",CCDC43 [18]; 5 h,0.35
same,"Expression level, KDELC2",KDELC2 [19]; 2 h,0.47
same,"Expression level, KDELC2",KDELC2 [19]; 5 h,0.07
same,"Expression level, 18s (housekeeping gene)",18S [20]; 2 h,0.83
same,"Expression level, 18s (housekeeping gene)",18S [20]; 5 h,0.66
